Several values for one entry are separate records, joined by “and”; a condition that tells them apart may be missing. Identical values can stand only once. Values belong to the compound of their own block, whether it stands above or below them.
What was measured:
Format in all cases: cell-based, mouse
[1] = system: BV2 microglial cells; test: Cell viability assay (MTS) on BV2 cells; settings: for IC50: Mus musculus, BV-2, MTS; for IC50 / cell viability: 24 h; for cell viability: compound at 25 μM, MTS
Description: (§1) BV2 microglial cells (SCSP-5208, Cell Bank, Chinese Academy of Sciences, Shanghai, China) were incubated in high-glucose DMEM supplemented with 10% fetal bovine serum and 1% penicillin and streptomycin in a humidified atmosphere of 5% CO2 at 37 °C.
(§2) BV2 cells were plated in 96-well microplates at 20,000 cells per well (100 μL/well) and incubated for 24 h. Then, 100 μL of compounds (diluted with medium to a final concentration of 1.56–100 μM) was added, and each concentration had 3 parallel wells. After 24 h, the cell viability was measured by MTS assay. The absorbance was detected at 490 nm. The percentage of viability was obtained from the following formula: ODdrug-treated/ODnormal cells × 100. The IC50 values of test compounds were calculated by linear regression plots.

[2] = system: NO release from LPS-stimulated BV2 cells; test: NO release inhibition in LPS-stimulated BV2 cells (Griess method); settings: for IC50 / inhibition at 20 µM: Mus musculus, BV-2, LPS-stimulated BV2 cells; for IC50: 24 h; for inhibition at 20 µM / Nitrite (NO release amount): compound at 20 μM; for inhibition at 20 µM: read-out: NO inhibition rate; for Nitrite (NO release amount): BV2 cells induced by LPS, Griess test
Description: BV2 cells stimulated by lipopolysaccharide (LPS) lead to an increase in NO release. Therefore, we used the inhibitory ability of the target compounds on NO as a preliminary method to evaluate their anti-neuroinflammatory properties. We evaluated the inhibitory ability of isatin–chalcone hybrid derivatives 4a–t on the release of NO from BV2 cells at 20 μM. The release amount of NO was detected by the Griess method, and the actual release amount of NO was calculated based on the experimental data.
BV2 cells were plated in 96-well microplates at 40,000 cells per well (100 μL/well) and incubated for 24 h. Then, 50 μL of LPS solution with a final concentration of 100 ng/mL and 50 μL of compounds (diluted with medium to a final concentration of 0.31–20 μM) were added, and each concentration had 3 parallel wells. The NO assay kit was used to carry out nitrite assays after 24 h. The 50 μL of culture medium was mixed with the GrisR1 (50 μL) and GrisR2 (50 μL) of the NO assay kit in another new 96-well plate. The absorbance was detected at 540 nm. The percentage of inhibition of NO was obtained from the following formula: [(Rlps − RB − RC)/(Rlps − RB)] × 100, where Rlps is the release amount of only the LPS-treated group, RB is the release amount of the normal control and RC is the release amount of the test compound and LPS-treated group. The IC50 values of test compounds were calculated by linear regression plots.

[3] = system: TNF-α; test: ELISA of TNF-α released by LPS-stimulated BV2 cells; settings: result in words
Description: (§3) BV2 cells were plated in 96-well microplates at 40,000 cells per well (100 μL/well) and incubated for 24 h. Then, 50 μL of LPS solution with a final concentration of 100 ng/mL and 50 μL of compounds (diluted with medium to a final concentration of 0.75–40 μM) were added, and each concentration had 3 parallel wells. The supernatant was collected after 24 h. Then, according to the manufacturer’s instructions, the ELISA assay kit was used to measure the concentrations of IL-6 and TNF-α. The absorbance was detected at 450 nm.

[4] = system: IL-6; test: ELISA of IL-6 released by LPS-stimulated BV2 cells; settings: result in words
Description: as §3

[5] = Cell viability assay (MTS) on BV2 cells; settings: mouse, BV2 microglial cells, MTS
Description: as §1, §2

IC50 [2]: 6.3 µM
SMILES: CCCCCCCCCCCOC(=O)CN1C(=O)/C(=C/C(=O)c2cc(OC)c(OC)c(OC)c2)c2ccccc21 [Compound 5c, Undecyl (E)-2-(2-oxo-3-(2-oxo-2-(3,4,5-trimethoxyphenyl)ethylidene)indolin-1-yl)acetate]
IC50 [1]: 19.8 µM

IC50 [2]: 10.3 µM
SMILES: CCOC(=O)CN1C(=O)/C(=C/C(=O)c2cc(OC)c(OC)c(OC)c2)c2cc(C)ccc21 [Compound 9e, Ethyl (E)-2-(5-methyl-2-oxo-3-(2-oxo-2-(3,4,5-trimethoxyphenyl)ethylidene)indolin-1-yl)acetate]
IC50 [1]: 80.6 µM
inhibition at 20 µM [2]: 72%
effect on production of TNF-α [3]: relatively weaker inhibitory effects
effect on production of IL-6 [4]: relatively weaker inhibitory effects

SMILES: CCOC(=O)CN1C(=O)/C(=C/C(=O)c2ccc(F)cc2)c2ccccc21 [Compound 4k, Ethyl (E)-2-(3-(2-(4-fluorophenyl)-2-oxoethylidene)-2-oxoindolin-1-yl)acetate]
Nitrite (NO release amount) [2]: 15.2 ± 0.2 µM

SMILES: O=C1Nc2ccccc2C1=O [Isatin, 1H-indole-2,3-dione]
Nitrite (NO release amount) [2]: 20.8 ± 0.9 µM

SMILES: CCOC(=O)CN1C(=O)/C(=C/C(=O)c2ccc[nH]2)c2ccccc21 [Compound 4r, Ethyl (E)-2-(2-oxo-3-(2-oxo-2-(1H-pyrrol-2-yl)ethylidene)indolin-1-yl)acetate]
Nitrite (NO release amount) [2]: 20.5 ± 0.6 µM
inhibition at 20 µM [2]: 28%

SMILES: CCOC(=O)CN1C(=O)/C(=C/C(=O)c2ccc([N+](=O)[O-])cc2)c2ccccc21 [Compound 4n, Ethyl (E)-2-(3-(2-(4-nitrophenyl)-2-oxoethylidene)-2-oxoindolin-1-yl)acetate]
Nitrite (NO release amount) [2]: 16.7 ± 0.3 µM

SMILES: CCOC(=O)CN1C(=O)/C(=C/C(=O)c2ccc(CC)cc2)c2ccccc21 [Compound 4e, Ethyl (E)-2-(3-(2-(4-ethylphenyl)-2-oxoethylidene)-2-oxoindolin-1-yl)acetate]
Nitrite (NO release amount) [2]: 15.2 ± 0.3 µM

IC50 [2]: 10.4 µM
SMILES: CCOC(=O)CN1C(=O)/C(=C/C(=O)c2cc(OC)c(OC)c(OC)c2)c2cc(OC)ccc21 [Compound 9f, Ethyl (E)-2-(5-methoxy-2-oxo-3-(2-oxo-2-(3,4,5-trimethoxyphenyl)ethylidene)indolin-1-yl)acetate]
IC50 [1]: 78.1 µM
inhibition at 20 µM [2]: 68%

SMILES: CCOC(=O)CN1C(=O)/C(=C/C(=O)c2ccc3ccccc3c2)c2ccccc21 [Compound 4p, Ethyl (E)-2-(3-(2-(naphthalen-2-yl)-2-oxoethylidene)-2-oxoindolin-1-yl)acetate]
Nitrite (NO release amount) [2]: 17.0 ± 0.3 µM

SMILES: CCOC(=O)CN1C(=O)/C(=C/C(=O)c2ccc(OC)cc2)c2ccccc21 [Compound 4h, Ethyl (E)-2-(3-(2-(4-methoxyphenyl)-2-oxoethylidene)-2-oxoindolin-1-yl)acetate]
Nitrite (NO release amount) [2]: 20.6 ± 0.6 µM

SMILES: CCOC(=O)CN1C(=O)/C(=C/C(C)=O)c2ccccc21 [Compound 4a, Ethyl (E)-2-(2-oxo-3-(2-oxopropylidene)indolin-1-yl)acetate]
Nitrite (NO release amount) [2]: 22.9 µM and 22.9 ± 0.5 µM

IC50 [2]: 10.7 µM
SMILES: COc1cc(C(=O)/C=C2/C(=O)N(CC(=O)OCCc3ccccc3)c3ccccc32)cc(OC)c1OC [Compound 5f, Phenethyl (E)-2-(2-oxo-3-(2-oxo-2-(3,4,5-trimethoxyphenyl)ethylidene)indolin-1-yl)acetate]
IC50 [1]: 42.7 µM

IC50 [2]: 10.8 µM
SMILES: CCCCCc1ccc(C(=O)/C=C2/C(=O)N(CC(=O)OCC)c3ccccc32)cc1 [Compound 4g, Ethyl (E)-2-(2-oxo-3-(2-oxo-2-(4-pentylphenyl)ethylidene)indolin-1-yl)acetate]
viability at 24 h, 3.1 µM ([5]; compound at 3.1 μM, read-out: cell viability (cell survival rate)): 98.4%
viability at 24 h, 6.3 μM ([5]; compound at 6.3 μM (printed 6.23 μM for 4b), read-out: cell viability (cell survival rate)): 95.1%
viability at 24 h, 12.5 µM ([5]; compound at 12.5 μM): 83.9%
viability at 24 h, 25 µM ([5]; compound at 25 μM, 24 h): 42%
IC50 [1]: 30.1 µM
cytotoxicity ([1]; under the concentration of 12.5 μM): did not show obvious cytotoxicity
Nitrite (NO release amount) [2]: 8.5 ± 0.1 µM
inhibition at 20 µM [2]: 73%

SMILES: CCOC(=O)CN1C(=O)/C(=C/C(=O)c2cc(OC)c(OC)c(OC)c2)c2cc(I)ccc21 [Compound 9d, Ethyl (E)-2-(5-iodo-2-oxo-3-(2-oxo-2-(3,4,5-trimethoxyphenyl)ethylidene)indolin-1-yl)acetate]
inhibition at 20 µM [2]: 22%

SMILES: CCOC(=O)CN1C(=O)/C(=C/C(=O)c2ccc(OCC)cc2)c2ccccc21 [Compound 4i, Ethyl (E)-2-(3-(2-(4-ethoxyphenyl)-2-oxoethylidene)-2-oxoindolin-1-yl)acetate]
Nitrite (NO release amount) [2]: 15.3 ± 0.3 µM

SMILES: CCOC(=O)CN1C(=O)/C(=C/C(=O)c2ccc(Br)cc2)c2ccccc21 [Compound 4m, Ethyl (E)-2-(3-(2-(4-bromophenyl)-2-oxoethylidene)-2-oxoindolin-1-yl)acetate]
Nitrite (NO release amount) [2]: 18.6 ± 0.3 µM

IC50 [2]: 10.9 µM
SMILES: COC(=O)CN1C(=O)/C(=C/C(=O)c2cc(OC)c(OC)c(OC)c2)c2ccccc21 [Compound 5a, Methyl (E)-2-(2-oxo-3-(2-oxo-2-(3,4,5-trimethoxyphenyl)ethylidene)indolin-1-yl)acetate]
IC50 [1]: 78.6 µM

SMILES: CCOC(=O)CN1C(=O)/C(=C/C(=O)C2CC2)c2ccccc21 [Compound 4t, Ethyl (E)-2-(3-(2-cyclopropyl-2-oxoethylidene)-2-oxoindolin-1-yl)acetate]
Nitrite (NO release amount) [2]: 16.7 ± 0.2 µM

SMILES: CCOC(=O)CN1C(=O)/C(=C/C(=O)c2ccco2)c2ccccc21 [Compound 4q, Ethyl (E)-2-(3-(2-(furan-2-yl)-2-oxoethylidene)-2-oxoindolin-1-yl)acetate]
cell viability [1]: nearly non-cytotoxic
Nitrite (NO release amount) [2]: 20.2 ± 0.4 µM
inhibition at 20 µM [2]: 30%

SMILES: CCOC(=O)CN1C(=O)/C(=C/C(=O)c2ccc(Cl)cc2)c2ccccc21 [Compound 4l, Ethyl (E)-2-(3-(2-(4-chlorophenyl)-2-oxoethylidene)-2-oxoindolin-1-yl)acetate]
Nitrite (NO release amount) [2]: 17.5 ± 0.3 µM

IC50 [2]: 15.8 µM
SMILES: CCCCCCCOC(=O)CN1C(=O)/C(=C/C(=O)c2cc(OC)c(OC)c(OC)c2)c2ccccc21 [Compound 5b, Heptyl (E)-2-(2-oxo-3-(2-oxo-2-(3,4,5-trimethoxyphenyl)ethylidene)indolin-1-yl)acetate]
IC50 [1]: 45.3 µM

SMILES: CCOC(=O)CN1C(=O)/C(=C/C(=O)c2ccc(-c3ccccc3)cc2)c2ccccc21 [Compound 4o, Ethyl (E)-2-(3-(2-([1,1′-biphenyl]-4-yl)-2-oxoethylidene)-2-oxoindolin-1-yl)acetate]
cell viability [1]: nearly non-cytotoxic
Nitrite (NO release amount) [2]: 19.0 ± 0.4 µM

SMILES: CCOC(=O)CN1C(=O)/C(=C/C(=O)c2ccccc2)c2ccccc21 [Compound 4c, Ethyl (E)-2-(2-oxo-3-(2-oxo-2-phenylethylidene)indolin-1-yl)acetate]
Nitrite (NO release amount) [2]: 19.3 ± 0.5 µM

SMILES: CCOC(=O)CN1C(=O)/C(=C/C(=O)c2ccc(C(C)C)cc2)c2ccccc21 [Compound 4f, Ethyl (E)-2-(3-(2-(4-isopropylphenyl)-2-oxoethylidene)-2-oxoindolin-1-yl)acetate]
cell viability [1]: nearly non-cytotoxic
Nitrite (NO release amount) [2]: 17.1 ± 0.3 µM

SMILES: CCOC(=O)CN1C(=O)/C(=C/C(=O)c2ccc(C)cc2)c2ccccc21 [Compound 4d, Ethyl (E)-2-(2-oxo-3-(2-oxo-2-(p-tolyl)ethylidene)indolin-1-yl)acetate]
Nitrite (NO release amount) [2]: 12.5 ± 0.2 µM

SMILES: CCOC(=O)CN1C(=O)/C(=C/C(=O)c2ccccn2)c2ccccc21 [Compound 4s, Ethyl (E)-2-(2-oxo-3-(2-oxo-2-(pyridin-2-yl)ethylidene)indolin-1-yl)acetate]
cell viability [1]: nearly non-cytotoxic
Nitrite (NO release amount) [2]: 11.1 ± 0.4 µM

Reference: publication PMC11990898, “Novel Isatin–Chalcone Hybrid Molecules: Design, Synthesis and Anti-Neuroinflammatory Activity Evaluation” (Molecules, 2025)
